Reference: US4500520A, “Antiinflammatory and/or analgesic silylfurans” (E. I. Du Pont de Nemours and Company, priority 1983, dated 1985)
Where two headings read alike, the source gives them in different places.

Tests used:
[1] = test system: adjuvant-induced arthritis (paw volume, uninjected left hind paw); assay: Established adjuvant-induced arthritis in rats; format: in vivo, rat (male Charles River Lewis); conditions: for ED50: Rattus norvegicus, read-out: Adjuvant Arthritis ED50; for Adjuvant Arthritis, percent reduction in paw volume at the indicated dose: at 27 mg/kg
[2] = test system: phenylquinone-induced writhing; assay: Phenylquinone writhing test; format: in vivo, mouse (female white); conditions: Mus musculus, read-out: Phenylquinone Writhing (PQW) ED50
Protocol: PHENYLQUINONE WRITHING TEST
A standard procedure for detecting and comparing the analgesic activity of compounds in this series for which there is a good correlation with human efficacy is the standard phenylquinone writhing test modified from Siegmund, et al., Proc. Soc. Exp. Biol. Med., 95, 729 (1957). A test compound suspended in 1% methylcellulose was given orally to fasted (17-21 hours) female white mice, 5-20 animals per double blind test. Aqueous (0.01% phenyl-p-benzoquinone) phenylquinone, 0.20 ml per mouse, was injected intraperitoneally 6 minutes before observations were begun. […] The effective analgesic dose for 50% of the mice (ED50) was calculated by the moving average method of Thompson, W. R., Bact. Rev., 11, 115-145 (1947); the time of peak activity was determined for many of the compounds. Data for some of the compounds are summarized in Table II together with data for some standard analgetic-antiinflammatory drugs.

[3] = oral, 7 daily doses, rats, effective dose for 50% decrease from control paw volume, read from dose-response line by inspection
[4] = oral, mice, effective analgesic dose for 50% of the mice, moving average method

Compound | ED50 ([1]; po) [mg/kg] | ED50 ([2]; po) [mg/kg] | Adjuvant Arthritis, percent reduction in paw volume at the indicated dose ([1]; oral, 7 daily doses, rats) [%] | ED50 [1, 3] [mg/kg] | ED50 [2, 4] [mg/kg]
CC(=O)Oc1ccccc1C(=O)O [Aspirin, reference compound] | 305 | 135 |  |  | 
C[Si](C)(C)c1cc(-c2ccc(F)cc2)c(-c2ccc(F)cc2)o1 [Example 1, 4,5-bis(4-Fluorophenyl)-2-trimethylsilylfuran] |  | 39 | 32 |  | 
COc1ccc(-c2cc([Si](C)(C)C)oc2-c2ccc(OC)cc2)cc1 [Example 2, 4,5-bis(4-Methoxyphenyl)-2-trimethylsilylfuran] | 2.5 | 2.3 |  |  | 
C[Si](C)(C)c1cc(-c2ccccc2)c(-c2ccccc2)o1 [Example 3, 4,5-Diphenyl-2-trimethylsilylfuran] |  | 94 | 24 |  | 
CSc1ccc(-c2cc([Si](C)(C)C)oc2-c2ccc(F)cc2)cc1 [Example 4, 5-(4-Fluorophenyl)-4-(4-methylthiophenyl)-2-trimethylsilylfuran] | > 27 | > 135 |  |  | 
Cc1ccc(-c2cc([Si](C)(C)C)oc2-c2ccc(Cl)cc2)cc1 [Example 5, 5-(4-Chlorophenyl)-4-(4-methylphenyl)-2-trimethylsilylfuran] |  | > 135 | 15 |  | 
CC(C)Cc1ccc(C(C)C(=O)O)cc1 (stereo not drawn) [Ibuprofen, reference compound] |  |  |  | 100 | 10
COc1ccc2c(c1)c(CC(=O)O)c(C)n2C(=O)c1ccc(Cl)cc1 [Indomethacin, reference compound] | 0.3 | 0.35 |  |  | 
CCCCC1C(=O)N(c2ccccc2)N(c2ccccc2)C1=O [Phenylbutazone, reference compound] |  |  |  | 10 | 80
